{"source": "paper PMC7887271", "about": "“Fast acting allosteric phosphofructokinase inhibitors block trypanosome glycolysis and cure acute African trypanosomiasis in mice” (Nature Communications, 2021)", "key": {"[1]": {"experiment": "Experimentally determined pKa and logP (Pharmorphix)", "format": "physicochemical", "method": "pKa and […] values for selected CTCB compounds were determined experimentally by the company Pharmorphix (www.matthey.com) and calculated pKas were determined using ChemAxon.software (https://chemaxon.com)."}, "[2]": {"target": "T1, TbPFK (Trypanosoma brucei brucei, UniProt O15648)", "T1 construct": "made in house; host or cells: Escherichia coli C41 (pET28a, codon optimised gene)", "T1 sequence (O15648 1-487)": "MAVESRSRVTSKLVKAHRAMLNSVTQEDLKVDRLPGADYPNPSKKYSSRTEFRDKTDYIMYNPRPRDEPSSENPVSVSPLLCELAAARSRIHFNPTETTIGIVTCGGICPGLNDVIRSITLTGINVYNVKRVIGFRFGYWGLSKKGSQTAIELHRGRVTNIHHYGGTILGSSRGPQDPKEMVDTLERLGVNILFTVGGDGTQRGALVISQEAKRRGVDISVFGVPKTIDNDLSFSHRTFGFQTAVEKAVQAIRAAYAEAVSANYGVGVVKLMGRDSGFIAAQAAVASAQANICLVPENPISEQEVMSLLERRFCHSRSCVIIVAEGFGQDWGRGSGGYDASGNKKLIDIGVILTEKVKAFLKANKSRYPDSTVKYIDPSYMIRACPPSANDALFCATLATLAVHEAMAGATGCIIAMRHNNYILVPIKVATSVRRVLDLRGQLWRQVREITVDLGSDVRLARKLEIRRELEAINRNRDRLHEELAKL", "experiment": "Surface plasmon resonance (SPR)", "format": "binding", "method": "SPR measurements were performed using a BIAcore T200 instrument (GE Healthcare). Active N-terminally His6-tagged TbPFK surfaces were generated using a His-tag capture and coupling onto Ni^2+‐nitrilotriacetic acid sensor chips. Following Ni^2+ priming (30 s injection of 500 μM NiCl2 at 5 μl min^−1), dextran surface carboxylate groups were minimally activated by an injection of 0.2 M EDC; 50 mM NHS at 5 μl min^−1 for 240 s. TbPFK (at concentrations between 10 and 400 nM), in 10 mM NaH2PO4, pH 7.5; 150 mM NaCl; 50 μM EDTA; 0.05% surfactant p20, was captured via the hexa-His-tag and simultaneously covalently stabilised to between 1500 RU and 3100 RU, by varying the contact time. Immediately following the capture/stabilisation a single 15 s injection of 350 mM EDTA and 50 mM imidazole in 10 mM NaH2PO4, pH 7.5; 150 mM NaCl; 50 mM EDTA; 0.05% surfactant p20, at 30 μl min^−1, was used to remove non-covalently bound protein, followed by a 180 s injection of 1 M H2N(CH2)2OH, pH 8.5 at 5 μl min^−1.\nActive N-terminally His6-tagged TbPFK surfaces were generated using a His-tag capture and coupling method described previously (2). The surface density on the SPR chip = 1500 RU. A 1:1 binding model has been fitted to each sensorgram trace (black). All measurements were at 25 °C. […] Source data are provided as a Source Data file."}}}
{"compound": "CN(C)CCn1ccc2c(ccn2Cc2ccc(Cl)c(Cl)c2)c1=O", "note": "[CTCB-405, 1-[(3,4-Dichlorophenyl)methyl]-5-[2-(dimethylamino)ethyl] pyrrolo[3,2-c]pyridin-4-one]", "values": [{"measurement": "logP", "setting": "[1]; read-out: Measured logP", "result": 3.29}, {"measurement": "pKa", "setting": "[1]; read-out: Measured pKa", "result": 8.09}, {"measurement": "koff", "setting": "[2]", "result": 0.079, "unit": "s⁻¹"}, {"measurement": "kon", "setting": "[2]", "result": 960000, "unit": "M⁻¹ s⁻¹"}, {"measurement": "Kd", "setting": "[2]; 25 °C", "result": 0.082, "unit": "µM"}]}
